ChEMBL document CHEMBL4715778, “Sobetirome prodrug esters with enhanced blood-brain barrier permeability” (Bioorg Med Chem, 2016)

Assays:
Format in all cases: ADME, organism-based
[1] = Prodrug conversion in C57Bl/6 mouse brain assessed as increase in sobetirome level at 1.5 micromol/kg, ip after 30 mins by LC-MS/MS analysis relative to sobetirome control; conditions: in vivo, 0.5 h, dose 1.5 µmol/kg
[2] = Ratio of AUC in C57Bl/6 mouse brain to liver at 1.5 microM/Kg, ip upto 8 hrs by LC-MS/MS analysis; conditions: in vivo
[3] = Half life in iv dosed mouse; conditions: in vivo
[4] = AUC (0 to t) in C57Bl/6 mouse brain at 1.5 microM/Kg, ip upto 8 hrs by LC-MS/MS analysis; parameters: route intraperitoneal, dose 1.5 µM/Kg, time <=8; conditions: in vivo
[5] = AUC (0 to t) in C57Bl/6 mouse liver at 1.5 microM/Kg, ip upto 8 hrs by LC-MS/MS analysis; parameters: route intraperitoneal, dose 1.5 µM/Kg, time <=8; conditions: in vivo
[6] = AUC (0 to t) in C57Bl/6 mouse serum at 1.5 microM/Kg, ip upto 8 hrs by LC-MS/MS analysis; parameters: route intraperitoneal, dose 1.5 µM/Kg, time <=8; conditions: in vivo
[7] = Ratio of AUC in C57Bl/6 mouse brain to serum at 1.5 microM/Kg, ip upto 8 hrs by LC-MS/MS analysis; conditions: read-out: Ratio AUC
[8] = AUC (0 to t) in C57Bl/6 mouse liver assessed as sobetirome level at 1.5 microM/Kg, ip upto 8 hrs by LC-MS/MS analysis; parameters: route intraperitoneal, dose 1.5 µM/Kg, time <=8; conditions: in vivo
[9] = Ratio of AUC (0 to t) in brain to liver in C57Bl/6 mouse assessed as sobetirome level at 1.5 microM/Kg, ip upto 8 hrs by LC-MS/MS analysis; conditions: in vivo
[10] = AUC (0 to t) in C57Bl/6 mouse brain assessed as sobetirome level at 1.5 microM/Kg, ip upto 8 hrs by LC-MS/MS analysis; parameters: route intraperitoneal, dose 1.5 µM/Kg, time <=8; conditions: in vivo
[11] = Ratio of AUC (0 to t) in brain to serum in C57Bl/6 mouse assessed as sobetirome level at 1.5 microM/Kg, ip upto 8 hrs by LC-MS/MS analysis
[12] = AUC (0 to t) in C57Bl/6 mouse serum assessed as sobetirome level at 1.5 microM/Kg, ip upto 8 hrs by LC-MS/MS analysis; parameters: route intraperitoneal, dose 1.5 µM/Kg, time <=8; conditions: in vivo
[13] = Ratio of AUC in brain to liver in C57Bl/6 mouse assessed as sobetirome level at 1.5 microM/Kg, ip upto 8 hrs by LC-MS/MS analysis; conditions: in vivo
[14] = Ratio of AUC in brain to serum in C57Bl/6 mouse assessed as sobetirome level at 1.5 microM/Kg, ip upto 8 hrs by LC-MS/MS analysis

Row | Compound | Drug metabolism [1] | also measured
1 | Cc1cc(OCC(=O)OCCNC(=O)[C@@H](N)C(C)C)cc(C)c1Cc1ccc(O)c(C(C)C)c1.Cl | Metabolite_Notdetected | 
2 | Cc1cc(OCC(=O)OCCNC(=O)[C@@H](N)CCCCN)cc(C)c1Cc1ccc(O)c(C(C)C)c1.Cl.Cl | Metabolite_Notdetected | 
3 | Cc1cc(OCC(=O)OC[C@H]2CCCN2)cc(C)c1Cc1ccc(O)c(C(C)C)c1 | Metabolite_Notdetected | 
4 | Cc1cc(OCC(=O)OC[C@H]2O[C@@H](O)[C@H](O)[C@@H](O)[C@@H]2O)cc(C)c1Cc1ccc(O)c(C(C)C)c1 | Metabolite_Notdetected | 
5 | Cc1cc(OCC(=O)OC2(C)CNC2)cc(C)c1Cc1ccc(O)c(C(C)C)c1 | Metabolite_Notdetected | 
6 | Cc1cc(OCC(=O)Oc2ccc(C[C@H](N)C(=O)O)cc2)cc(C)c1Cc1ccc(O)c(C(C)C)c1.Cl | Metabolite_Notdetected | 
7 | Cc1cc(OCC(=O)OC2CCCNC2)cc(C)c1Cc1ccc(O)c(C(C)C)c1 (stereo not given) | Metabolite_Notdetected | 
8 | CCOC(=O)COc1cc(C)c(Cc2ccc(O)c(C(C)C)c2)c(C)c1 | Metabolite_Notdetected | 
9 | Cc1cc(OCC(=O)OC2CCNCC2)cc(C)c1Cc1ccc(O)c(C(C)C)c1 | Metabolite_Notdetected | 
10 | Cc1cc(OCC(=O)O)cc(C)c1Cc1ccc(O)c(C(C)C)c1 [SOBETIROME] | Metabolite_Notdetected | Ratio AUC [2]: 0.004; half-life [3]: 1.3 h; AUC [4]: 10.8 ng·h/g; AUC [5]: 2933 ng·h/g; AUC [6]: 681.7 ng·h/g; Kp at 8 h [7]: 0.02
11 | Cc1cc(OCC(=O)OCCN)cc(C)c1Cc1ccc(O)c(C(C)C)c1.Cl |  | AUC [8]: 1897 ng·h/g; Ratio AUC [9]: 0.009; AUC [10]: 17.1 ng·h/g; Ratio AUC [11]: 0.05; fold change (FC) [1]: 2; AUC [12]: 367.8 ng·h/g; fold change (FC) [13]: 4; fold change (FC) [14]: 7
12 | Cc1cc(OCC(=O)OC2CNC2)cc(C)c1Cc1ccc(O)c(C(C)C)c1 | Metabolite_Notdetected | 
13 | Cc1cc(OCC(=O)OCC[N+](C)(C)C)cc(C)c1Cc1ccc(O)c(C(C)C)c1.[Br-] | Metabolite_Notdetected | 
14 | Cc1cc(OCC(=O)OCC2CCCCN2)cc(C)c1Cc1ccc(O)c(C(C)C)c1 (stereo not given) | Metabolite_Notdetected | 
15 | Cc1cc(OCC(=O)OCCN2CCOCC2)cc(C)c1Cc1ccc(O)c(C(C)C)c1 | Metabolite_Notdetected | 
16 | Cc1cc(OCC(=O)OCCN(C)C)cc(C)c1Cc1ccc(O)c(C(C)C)c1 | Metabolite_Notdetected | 
17 | Cc1cc(OCC(=O)OC2CN(C)C2)cc(C)c1Cc1ccc(O)c(C(C)C)c1 | Metabolite_Notdetected | 
